Data on 16 molecules can be found in publication PMC13162264, “Chemoproteomic Elucidation of β‑Lactam Drug Targets in Mycobacterium abscessus” (ACS Infectious Diseases, 2026).

Data set [1] has as its target T1, Ldt4 (Mycobacteroides abscessus, UniProt B1MKW1). The data set is described as follows: β-lactam competition of ABP labeling, recombinant enzyme. In kind it is binding, Mycobacterium abscessus. The following applies: drug 500 μM, 30 min 37 °C, then 10 μM Mero-sCy5 or Bocillin FL.
Data set [2] concerns the target T2, DacB2 (Mycobacteroides abscessus, UniProt B1MDJ1). The description is as above. The following applies: drug 500 μM, 30 min 37 °C, then 10 μM Mero-sCy5 or Bocillin FL.
Data set [3] concerns β-lactam targets in Mab 19977 whole-cell lysates. Put plainly: β-lactam competition of Mero-sCy5 labeling in whole-cell lysates. The settings on record: Mab 19977 lysate; drug 1 mM, then Mero-sCy5 5 μM. In kind it is binding, Mycobacterium abscessus subsp. abscessus.
The subject of data set [4] is β-lactam targets in M9510 whole-cell lysates. The description is as above. Type of data set: binding, Mycobacterium abscessus subsp. massiliense. The following applies: drug 1 mM, then Mero-sCy5 5 μM.
The target of the next data set is MAB_4800 (Mycobacteroides abscessus, UniProt B1MM83). The data set is described as follows: β-lactam IC50 by drug treatment then Bocillin FL labeling, in-gel fluorescence. Type of data set: binding. The following applies: 0.5 μM enzyme, drug 30 min 37 °C, then 10 µM Bocillin FL.
The conditions of data set [5]: human, in vivo; cited from earlier work.
The next data set deals with PbpB (Mycobacteroides abscessus, UniProt B1MP31). Put plainly: β-lactam IC50 by drug treatment then Bocillin FL labeling, in-gel fluorescence. In kind it is binding. The settings on record: 0.5 μM enzyme, drug 30 min 37 °C, then 10 µM Bocillin FL.
Data set [6] has as its target T3, MAB_0330 (Mycobacteroides abscessus, UniProt B1MFM9). Described as above. Type of data set: binding. The settings on record: fit not accurate, error unacceptably large (± 180 μM IPM, ± 240 μM FOX).
In data set [7] the target is T1, Ldt4. Described as above. In kind it is binding, Mycobacterium abscessus. The settings on record: drug 30 min 37 °C, then 10 µM Bocillin FL.
Data set [8] has as its system M. abscessus subsp. massiliense (n = 754 isolates). Set-up: method as in Hunkins et al. The settings on record: ref Hunkins et al.; cited from earlier work.
The target of data set [9] is T2, DacB2. Put plainly: β-lactam IC50 by drug treatment then Bocillin FL labeling, in-gel fluorescence. In kind it is binding, Mycobacterium abscessus.
Data set [10] relates to M. abscessus subsp. abscessus (n = 1344 isolates). Set-up: method as in Hunkins et al. The settings on record: ref Hunkins et al.; cited from earlier work.
Data set [11] relates to Mab 19977 (ATCC 19977, subsp. abscessus). Set-up: method as in not given. The following applies: supplemented Middlebrook 7H9 broth, reported values, ref not given; cited from earlier work.
Data set [12] concerns the target T3, MAB_0330. The data set is described as follows: β-lactam competition of ABP labeling, recombinant enzyme. Type of data set: binding. The following applies: drug 500 μM, 30 min 37 °C, then 10 μM Mero-sCy5 or Bocillin FL.
Data set [13] has as its system M9510 (clinical strain, subsp. massiliense). Set-up: method as in not given. The settings on record: supplemented Middlebrook 7H9 broth, reported values, ref not given; cited from earlier work.
The subject of data set [14] is Mab 19977 whole-cell lysates (REP and CS). The settings on record: Mab 19977 lysates, 10 μM probe.
For data set [15], the system named is M9510 whole-cell lysates (REP and CS). The following applies: 10 μM probe.
Data set [16] has as its system M9510 (clinical strain, subsp. massiliense). The data set is described as follows: Reported MIC in supplemented Middlebrook 7H9 broth. Type of data set: cell-based, Mycobacterium abscessus subsp. massiliense. The settings on record: from past characterization of M9510, ref not given.
A further data set concerns Ldt2. Set-up: method as in not given. The following applies: nitrocefin hydrolysis by Mab Ldt2, previously found, ref not given, cited from earlier work.
The test system of another data set is recombinant BlaMab. The data set is described as follows: β-lactamase activity, nitrocefin hydrolysis. The settings on record: data not shown. In kind it is biochemical, Mycobacterium abscessus.
The subject of data set [17] is O=C(Cc1cccs1)N[C@@H]1C(=O)N2C(C(=O)O)=C(/C=C/c3ccc([N+](=O)[O-])cc3[N+](=O)[O-])CS[C@H]12. The data set is described as follows: purified protein, by the assay type. The following applies: other: nitrocefin hydrolysis by MAB_3998 (20 μM), 37 °C.
Substrate in data set [18]: O=C(Cc1cccs1)N[C@@H]1C(=O)N2C(C(=O)O)=C(/C=C/c3ccc([N+](=O)[O-])cc3[N+](=O)[O-])CS[C@H]12
The data set is described as follows: Steady-state kinetics of nitrocefin hydrolysis. The settings on record: 37 °C. Type of data set: biochemical, Mycobacterium abscessus.

[19] abbreviates: other: nitrocefin hydrolysis by Ldt4 (5 μM).
The mark [20] stands for this setting: other: nitrocefin hydrolysis by PbpB (20 μM).

≈ marks a conversion by molar mass, not a printed value. Some results are limits rather than exact numbers.

T2 sequence (B1MDJ1 entry or part of it): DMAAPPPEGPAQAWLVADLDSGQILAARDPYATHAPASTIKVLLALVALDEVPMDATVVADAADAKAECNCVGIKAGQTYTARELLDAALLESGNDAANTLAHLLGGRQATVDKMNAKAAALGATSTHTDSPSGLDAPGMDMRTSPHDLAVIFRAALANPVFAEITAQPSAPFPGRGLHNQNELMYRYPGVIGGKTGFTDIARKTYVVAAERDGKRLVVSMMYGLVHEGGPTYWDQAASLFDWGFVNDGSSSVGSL
T3 sequence (B1MFM9 entry or part of it): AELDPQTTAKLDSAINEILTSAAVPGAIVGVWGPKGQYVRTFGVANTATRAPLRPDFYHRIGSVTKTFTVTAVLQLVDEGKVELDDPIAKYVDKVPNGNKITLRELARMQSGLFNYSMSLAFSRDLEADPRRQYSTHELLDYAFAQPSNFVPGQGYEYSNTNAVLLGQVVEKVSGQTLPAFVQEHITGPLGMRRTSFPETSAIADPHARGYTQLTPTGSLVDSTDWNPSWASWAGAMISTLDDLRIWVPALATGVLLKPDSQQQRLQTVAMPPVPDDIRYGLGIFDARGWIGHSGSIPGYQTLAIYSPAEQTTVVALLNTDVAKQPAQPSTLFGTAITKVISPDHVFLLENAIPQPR
MAB_4800, sequence (B1MM83 entry or part of it): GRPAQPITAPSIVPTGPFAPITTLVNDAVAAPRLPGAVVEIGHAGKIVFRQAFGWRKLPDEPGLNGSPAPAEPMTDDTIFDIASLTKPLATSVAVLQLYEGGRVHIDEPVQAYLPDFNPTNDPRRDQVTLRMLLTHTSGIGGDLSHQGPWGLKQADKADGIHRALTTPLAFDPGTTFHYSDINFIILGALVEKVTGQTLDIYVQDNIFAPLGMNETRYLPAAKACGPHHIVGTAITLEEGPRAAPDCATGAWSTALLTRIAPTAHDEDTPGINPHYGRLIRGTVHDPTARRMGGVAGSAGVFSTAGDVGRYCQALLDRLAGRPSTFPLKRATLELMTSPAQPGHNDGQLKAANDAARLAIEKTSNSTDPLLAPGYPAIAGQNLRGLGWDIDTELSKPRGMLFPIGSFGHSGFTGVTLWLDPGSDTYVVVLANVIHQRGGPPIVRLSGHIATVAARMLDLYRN

On to `NC(=O)[C@@H]1CC[C@@H]2CN1C(=O)N2OS(=O)(=O)O` [AVI, avibactam], for which, on Ldt4 [1], the “inhibition of fluorescent ABP binding to Ldt4” value is given as “enhancement of Ldt4 binding by Mero-sCy5”. In addition, the “inhibition of fluorescent ABP binding to DacB2” value at DacB2 [2] was “intermediate inhibition”.
For `C[C@H]1[C@H](NC(=O)/C(=N\OC(C)(C)C(=O)O)c2csc(N)n2)C(=O)N1S(=O)(=O)O` [AZT, aztreonam], the “inhibition of Mero-sCy5 labeling of targets in lysate” value (“inhibition … in lysate” for short) in [3] and in data set [4] was “largely ineffective inhibitors” in each case.
On to `CO[C@@]1(NC(=O)Cc2cccs2)C(=O)N2C(C(=O)O)=C(COC(N)=O)CS[C@@H]21` [FOX, cefoxitin], for which the “inhibition of fluorescent ABP binding to Ldt4” value at Ldt4 [1] was “did not inhibit”. Besides, the IC50 against MAB_4800 is greater than 1000 µM; against PbpB, 12 ± 4 µM; against MAB_0330 [6] it was 270 µM; on Ldt4 [7] (IC50 Ldt4, 0.5 μM enzyme), greater than 1000 µM; at DacB2 [9] it was 0.4 ± 0.9 µM. Also, the “IC50 MAB_4800” value against MAB_4800 is recorded as “did not inhibit”. In addition, the “fCss,avg (median unbound average steady-state plasma concentration)” value in data set [5] is 4.0 µg/mL. Moreover, the “inhibition … in lysate” value in data set [3] and in data set [4] was “inhibited many targets but not all” in each case. The “IC50 Ldt4” value against Ldt4 [7] (0.5 μM enzyme) is on record as “did not inhibit”. Besides, the MIC90 in data set [8] and in data set [10] was 64 µg/mL (≈ 150 µM) throughout. In addition, the “fold more potent inhibition of DacB2 than IPM” value on DacB2 [9] (IC50 comparison FOX vs IPM) was found to be 5 fold. Further, the minimum inhibitory concentration (MIC) in data set [11] and in data set [13] was 64 µg/mL (≈ 150 µM) each time. In addition, the “inhibition of fluorescent ABP binding to MAB_0330” value on MAB_0330 [12] is given as “weakly inhibited”.
For `C[C@@H](O)[C@H]1C(=O)N2C(C(=O)O)=C(S[C@H]3C[C@@H](C(=O)N(C)C)N(C(=O)CCCCC[N+]4=C(/C=C/C=C/C=C5/N(C)c6ccc(S(=O)(=O)O)cc6C5(C)C)C(C)(C)c5cc(S(=O)(=O)[O-])ccc54)C3)[C@H](C)[C@H]12` [Mero-sCy5], the “targets labeled in gel-resolved lysate” value in data set [14] and in [15] was “labeled more targets than Bocillin FL” each time.
Regarding `CC1(C)S[C@@H]2[C@H](NC(=O)Cc3ccccc3)C(=O)N2[C@H]1C(=O)O` [PEN, penicillin G], the “inhibition … in lysate” value in data set [3] and in data set [4] was “largely ineffective inhibitors” in each case.
With `NCC[C@H](O)C(=O)N[C@@H]1C[C@H](N)[C@@H](O[C@H]2O[C@H](CN)[C@@H](O)[C@H](O)[C@H]2O)[C@H](O)[C@H]1O[C@H]1O[C@H](CO)[C@@H](O)[C@H](N)[C@H]1O` [amikacin], the “susceptibility indicated by reported MIC” value in [11] and in data set [13] was “susceptible” in each case.
Consider `CC1(C)S[C@@H]2[C@H](NC(=O)[C@H](N)c3ccc(O)cc3)C(=O)N2[C@H]1C(=O)O` [amoxicillin], for which the minimum inhibitory concentration (MIC) in data set [11] and in [13] was greater than 256 µg/mL each time.
Regarding `C=CC1=C(C(=O)O)N2C(=O)[C@@H](NC(=O)/C(=N\O)c3csc(N)n3)[C@H]2SC1` [cefdinir], the MIC in data set [11] and in data set [13] was 128 µg/mL (≈ 324 µM) throughout.
For the molecule `CC(C)(O/N=C(\C(=O)N[C@@H]1C(=O)N2C(C(=O)[O-])=C(C[n+]3ccccc3)CS[C@H]12)c1csc(N)n1)C(=O)O` [ceftazidime], the minimum inhibitory concentration (MIC) in [11] and in data set [13] was greater than 256 µg/mL each time.
As to `C[C@@H](O)[C@H]1C(=O)N2C(C(=O)O)=C(S[C@@H]3CN[C@H](CNS(N)(=O)=O)C3)[C@H](C)[C@H]12` [doripenem], the “increased MIC in M9510 relative to 19977” value in [16] was determined as 4 fold. The minimal inhibitory concentration (MIC) is 16 µg/mL (≈ 38 µM) in [11] and 64 µg/mL (≈ 152 µM) in [13].
`C[C@@H](O)[C@H]1C(=O)N2C(C(=O)O)=C(S[C@@H]3CN[C@H](C(=O)N(C)C)C3)[C@H](C)[C@H]12` [meropenem]: the “inhibition … in lysate” value in data set [3] and in data set [4] was “abolished ABP labeling” each time.
For the molecule `O=C(Cc1cccs1)N[C@@H]1C(=O)N2C(C(=O)O)=C(/C=C/c3ccc([N+](=O)[O-])cc3[N+](=O)[O-])CS[C@H]12` [nitrocefin], in the data set with Ldt2, the “maximal rate of hydrolysis” value is 0.33 µM/s. For the same molecule, the Km in the data set on Ldt2 (read-out: affinity for nitrocefin (Km)) is 328 µM. Besides, in the data set on recombinant BlaMab, the “nitrocefin hydrolysis by BlaMab” value is “complete nitrocefin hydrolysis near instantaneously”.
Take `CO[C@H]1/C=C/O[C@@]2(C)Oc3c(C)c(O)c4c(c3C2=O)C2=NC3(CCN(CC(C)C)CC3)NC2=C(NC(=O)/C(C)=C\C=C\[C@H](C)[C@H](O)[C@@H](C)[C@@H](O)[C@@H](C)[C@H](OC(C)=O)[C@@H]1C)C4=O` [rifabutin]: the “susceptibility indicated by reported MIC” value in data set [11] and in data set [13] was “susceptible” each time.
For “MAB_3998 (Mycobacteroides abscessus ATCC 19977)”, in data set [17], the Km worked out at 150 ± 9 µM, the kcat was 0.0022 ± 6.1e^-5 s^-1 and the catalytic efficiency (kcat/Km) is 14 M⁻¹ s⁻¹.

B1: Ldt4 (Mycobacteroides abscessus ATCC 19977) (protein)
chain: GDVPPLPVGLLKNSPNNGDVVGVAQPITIVFAAPVTDKKAAEAAVKITTSKPAPGYFYWYTDQQLRWKPTQFWPANTDVNVNAGGTKWSFKVGDAFVSTVDDATYTMTVTRNGVVERTMPISMGKHDKKHETKNGTYYVSEKFQKMVMDSSTYGVPVNSAEGYKLDVYWATRLSNSGIFVHAAPWSVGAQGKSDTSHGCINVNTDNATWFFNQSHPGDPVIVKNSPGGPYKDYDGYDDWQRF
On to B1, for which, in [18] (setting [19]), the Km is 65 ± 7 µM, the kcat is 0.0042 ± 2.0e^-4 s^-1 and the specificity constant (kcat/Km) came to 65 M⁻¹ s⁻¹.

B2: PbpB (Mycobacteroides abscessus ATCC 19977) (protein)
chain: GPRAAGLRAEASGQLKVTETEKALRGTIVDRAGNKLAFTIEARALTFQPKKIREQLNKAWEKSQEILKDPGKSDADKAAAAKIRSVEPERRLQDIANGVSAKLGNKPDAKSLLKKIRSDDTFAYLARSVDPGIAAQITKEFPEVGAERQDIRQYPGGSLAANIVGSIDWEGYGLLGLEDSLDSALAGKDGSLTYDRGSDGAVIPGSYRDRHDAVNGSTVELTLDNDIQFYVQQQVQQAKDLSEARSVSAVVLDSKTGEVLAMANDNTFDPSQNLGKQGNREMGNLSVSSPFEPGSVNKVITASAVIENDLSNPDEVLQVPGSINMGGVTVRDAWPHGTVPFTTTGVFGKSSNVGTLMLAQRVGPERFMDLVDKFGLGQRTGVGLPGESAGIVPPIEQWSGSTFSNLPIGQGLSMTLLQMAGMYQAIANDGVRIPPRIVKSITAPDGSRKEEPRPEPVQVVNAGTARTVRNMLRAVLQPDARQIQNGTGASGAVDGYQLSGKTGTAQQINPACGCYFDDVYWITFAGIATTDDPRYVIGIEMNAPKRGSDGSPHMTAAPLFHNIASWLMRRENVPLSPDPGPPLILQAT
For B2, in data set [18] (setting [20]), the Km was 220 ± 27 µM, the kcat stood at 0.00075 ± 3.1e^-5 s^-1 and the specificity constant (kcat/Km) was found to be 3.4 M⁻¹ s⁻¹.
